ChEMBL document CHEMBL3745676, “Alkylamino derivatives of N-benzylpyrazine-2-carboxamide: synthesis and antimycobacterial evaluation” (Medchemcomm, 2015)
Values after ≈ are worked out from the molar mass of the structure shown.

Tests used:
Format in all cases: functional
[1] = tested on: Mycobacterium tuberculosis; test: Antimycobacterial activity against multi-drug resistant Mycobacterium tuberculosis 7357/1998 after 14 days by microplate dilution method; details: 7357/1998, 336 h
[2] = tested on: Mycobacterium tuberculosis; test: Antimycobacterial activity against multi-drug resistant Mycobacterium tuberculosis 7357/1998 after 21 days by microplate dilution method; details: 7357/1998, 504 h
[3] = tested on: Mycobacterium tuberculosis; test: Antimycobacterial activity against multi-drug resistant Mycobacterium tuberculosis 234/2005 after 14 days by microplate dilution method; details: 234/2005, 336 h
[4] = tested on: Mycobacterium tuberculosis; test: Antimycobacterial activity against multi-drug resistant Mycobacterium tuberculosis 234/2005 after 21 days by microplate dilution method; details: 234/2005, 504 h
[5] = tested on: Mycobacterium tuberculosis; test: Antimycobacterial activity against multi-drug resistant Mycobacterium tuberculosis 9449/2007 after 14 days by microplate dilution method; details: 9449/2007, 336 h
[6] = tested on: Mycobacterium tuberculosis; test: Antimycobacterial activity against multi-drug resistant Mycobacterium tuberculosis 9449/2007 after 21 days by microplate dilution method; details: 9449/2007, 504 h
[7] = tested on: Mycobacterium tuberculosis; test: Antimycobacterial activity against multi-drug resistant Mycobacterium tuberculosis 8666/2010 after 14 days by microplate dilution method; details: 8666/2010, 336 h
[8] = tested on: Mycobacterium tuberculosis; test: Antimycobacterial activity against multi-drug resistant Mycobacterium tuberculosis 8666/2010 after 21 days by microplate dilution method; details: 8666/2010, 504 h
[9] = tested on: Mycobacterium tuberculosis; test: Antimycobacterial activity against multi-drug resistant Mycobacterium tuberculosis Praha 1 after 14 days by microplate dilution method; details: Praha 1, 336 h
[10] = tested on: Mycobacterium tuberculosis; test: Antimycobacterial activity against multi-drug resistant Mycobacterium tuberculosis Praha 1 after 21 days by microplate dilution method; details: Praha 1, 504 h
[11] = tested on: Mycobacterium tuberculosis; test: Antimycobacterial activity against multi-drug resistant Mycobacterium tuberculosis Praha 4 after 14 days by microplate dilution method; details: Praha 4, 336 h
[12] = tested on: Mycobacterium tuberculosis; test: Antimycobacterial activity against multi-drug resistant Mycobacterium tuberculosis Praha 4 after 21 days by microplate dilution method; details: Praha 4, 504 h
[13] = tested on: Mycobacterium tuberculosis; test: Antimycobacterial activity against multi-drug resistant Mycobacterium tuberculosis Praha 131 after 14 days by microplate dilution method; details: Praha 131, 336 h
[14] = tested on: Mycobacterium tuberculosis; test: Antimycobacterial activity against multi-drug resistant Mycobacterium tuberculosis Praha 131 after 21 days by microplate dilution method; details: Praha 131, 504 h

Structure (SMILES)	MIC [1]	MIC [2]	MIC [3]	MIC [4]	MIC [5]	MIC [6]	MIC [7]	MIC [8]	MIC [9]	MIC [10]	MIC [11]	MIC [12]	MIC [13]	MIC [14]
CCCCCNc1cnc(C(=O)NCc2ccccc2)cn1	16 µM (≈ 4.77 µg/mL)	32 µM (≈ 9.55 µg/mL)	16 µM (≈ 4.77 µg/mL)	32 µM (≈ 9.55 µg/mL)	16 µM (≈ 4.77 µg/mL)	32 µM (≈ 9.55 µg/mL)	16 µM (≈ 4.77 µg/mL)	32 µM (≈ 9.55 µg/mL)	16 µM (≈ 4.77 µg/mL)	32 µM (≈ 9.55 µg/mL)	16 µM (≈ 4.77 µg/mL)	32 µM (≈ 9.55 µg/mL)	16 µM (≈ 4.77 µg/mL)	16 µM (≈ 4.77 µg/mL)
NNC(=O)c1ccncc1 [ISONIAZID]	16 µM (≈ 2.19 µg/mL)	32 µM (≈ 4.39 µg/mL)	16 µM (≈ 2.19 µg/mL)	16 µM (≈ 2.19 µg/mL)	16 µM (≈ 2.19 µg/mL)	16 µM (≈ 2.19 µg/mL)	16 µM (≈ 2.19 µg/mL)	32 µM (≈ 4.39 µg/mL)	16 µM (≈ 2.19 µg/mL)	16 µM (≈ 2.19 µg/mL)	16 µM (≈ 2.19 µg/mL)	16 µM (≈ 2.19 µg/mL)	16 µM (≈ 2.19 µg/mL)	16 µM (≈ 2.19 µg/mL)
CCCCCCNc1cncc(C(=O)NCc2ccccc2)n1	32 µM (≈ 10 µg/mL)	32 µM (≈ 10 µg/mL)	16 µM (≈ 5 µg/mL)	32 µM (≈ 10 µg/mL)	32 µM (≈ 10 µg/mL)	32 µM (≈ 10 µg/mL)	16 µM (≈ 5 µg/mL)	32 µM (≈ 10 µg/mL)	16 µM (≈ 5 µg/mL)	32 µM (≈ 10 µg/mL)	32 µM (≈ 10 µg/mL)	32 µM (≈ 10 µg/mL)	16 µM (≈ 5 µg/mL)	32 µM (≈ 10 µg/mL)
CCCCCNc1nccnc1C(=O)NCc1ccccc1	1000 µM (≈ 298 µg/mL)	> 1000 µM	1000 µM (≈ 298 µg/mL)	> 1000 µM	1000 µM (≈ 298 µg/mL)	> 1000 µM	1000 µM (≈ 298 µg/mL)	> 1000 µM	1000 µM (≈ 298 µg/mL)	> 1000 µM	1000 µM (≈ 298 µg/mL)	> 1000 µM	1000 µM (≈ 298 µg/mL)	> 1000 µM
CCCCCCNc1nccnc1C(=O)NCc1ccccc1	1000 µM (≈ 312 µg/mL)	> 1000 µM	1000 µM (≈ 312 µg/mL)	> 1000 µM	1000 µM (≈ 312 µg/mL)	1000 µM (≈ 312 µg/mL)	1000 µM (≈ 312 µg/mL)	> 1000 µM	1000 µM (≈ 312 µg/mL)	> 1000 µM	1000 µM (≈ 312 µg/mL)	> 1000 µM	1000 µM (≈ 312 µg/mL)	> 1000 µM
CCCCNc1cnc(C(=O)NCc2ccccc2)cn1	125 µM (≈ 35.5 µg/mL)	125 µM (≈ 35.5 µg/mL)	125 µM (≈ 35.5 µg/mL)	250 µM (≈ 71.1 µg/mL)	62.5 µM (≈ 17.8 µg/mL)	125 µM (≈ 35.5 µg/mL)	125 µM (≈ 35.5 µg/mL)	250 µM (≈ 71.1 µg/mL)	125 µM (≈ 35.5 µg/mL)	250 µM (≈ 71.1 µg/mL)	62.5 µM (≈ 17.8 µg/mL)	125 µM (≈ 35.5 µg/mL)	62.5 µM (≈ 17.8 µg/mL)	125 µM (≈ 35.5 µg/mL)
CCCCCCCNc1cnc(C(=O)NCc2ccccc2)cn1	4 µM (≈ 1.31 µg/mL)	8 µM (≈ 2.61 µg/mL)	4 µM (≈ 1.31 µg/mL)	4 µM (≈ 1.31 µg/mL)	4 µM (≈ 1.31 µg/mL)	8 µM (≈ 2.61 µg/mL)	4 µM (≈ 1.31 µg/mL)	4 µM (≈ 1.31 µg/mL)	4 µM (≈ 1.31 µg/mL)	4 µM (≈ 1.31 µg/mL)	4 µM (≈ 1.31 µg/mL)	8 µM (≈ 2.61 µg/mL)	2 µM (≈ 0.653 µg/mL)	4 µM (≈ 1.31 µg/mL)
CCCCNc1cncc(C(=O)NCc2ccccc2)n1	62.5 µM (≈ 17.8 µg/mL)	62.5 µM (≈ 17.8 µg/mL)	62.5 µM (≈ 17.8 µg/mL)	62.5 µM (≈ 17.8 µg/mL)	62.5 µM (≈ 17.8 µg/mL)	125 µM (≈ 35.5 µg/mL)	62.5 µM (≈ 17.8 µg/mL)	62.5 µM (≈ 17.8 µg/mL)	62.5 µM (≈ 17.8 µg/mL)	62.5 µM (≈ 17.8 µg/mL)	32 µM (≈ 9.1 µg/mL)	62.5 µM (≈ 17.8 µg/mL)	32 µM (≈ 9.1 µg/mL)	62.5 µM (≈ 17.8 µg/mL)
CCCCCCCNc1cncc(C(=O)NCc2ccccc2)n1	16 µM (≈ 5.22 µg/mL)	16 µM (≈ 5.22 µg/mL)	16 µM (≈ 5.22 µg/mL)	16 µM (≈ 5.22 µg/mL)	16 µM (≈ 5.22 µg/mL)	16 µM (≈ 5.22 µg/mL)	16 µM (≈ 5.22 µg/mL)	16 µM (≈ 5.22 µg/mL)	16 µM (≈ 5.22 µg/mL)	16 µM (≈ 5.22 µg/mL)	8 µM (≈ 2.61 µg/mL)	16 µM (≈ 5.22 µg/mL)	8 µM (≈ 2.61 µg/mL)	16 µM (≈ 5.22 µg/mL)
CCCCCCNc1cnc(C(=O)NCc2ccccc2)cn1	8 µM (≈ 2.5 µg/mL)	8 µM (≈ 2.5 µg/mL)	4 µM (≈ 1.25 µg/mL)	8 µM (≈ 2.5 µg/mL)	8 µM (≈ 2.5 µg/mL)	8 µM (≈ 2.5 µg/mL)	4 µM (≈ 1.25 µg/mL)	8 µM (≈ 2.5 µg/mL)	4 µM (≈ 1.25 µg/mL)	8 µM (≈ 2.5 µg/mL)	8 µM (≈ 2.5 µg/mL)	8 µM (≈ 2.5 µg/mL)	4 µM (≈ 1.25 µg/mL)	4 µM (≈ 1.25 µg/mL)
CCCCCCCNc1nccnc1C(=O)NCc1ccccc1	1000 µM (≈ 326 µg/mL)	1000 µM (≈ 326 µg/mL)	1000 µM (≈ 326 µg/mL)	> 1000 µM	> 1000 µM	> 1000 µM	1000 µM (≈ 326 µg/mL)	> 1000 µM	1000 µM (≈ 326 µg/mL)	> 1000 µM	> 1000 µM	> 1000 µM	1000 µM (≈ 326 µg/mL)	> 1000 µM
CCCCCNc1cncc(C(=O)NCc2ccccc2)n1	32 µM (≈ 9.55 µg/mL)	62.5 µM (≈ 18.6 µg/mL)	62.5 µM (≈ 18.6 µg/mL)	62.5 µM (≈ 18.6 µg/mL)	32 µM (≈ 9.55 µg/mL)	62.5 µM (≈ 18.6 µg/mL)	62.5 µM (≈ 18.6 µg/mL)	62.5 µM (≈ 18.6 µg/mL)	62.5 µM (≈ 18.6 µg/mL)	62.5 µM (≈ 18.6 µg/mL)	32 µM (≈ 9.55 µg/mL)	62.5 µM (≈ 18.6 µg/mL)	32 µM (≈ 9.55 µg/mL)	62.5 µM (≈ 18.6 µg/mL)
CCCCCCCCNc1cnc(C(=O)NCc2ccccc2)cn1	8 µM (≈ 2.72 µg/mL)	8 µM (≈ 2.72 µg/mL)	4 µM (≈ 1.36 µg/mL)	8 µM (≈ 2.72 µg/mL)	8 µM (≈ 2.72 µg/mL)	8 µM (≈ 2.72 µg/mL)	4 µM (≈ 1.36 µg/mL)	8 µM (≈ 2.72 µg/mL)	4 µM (≈ 1.36 µg/mL)	8 µM (≈ 2.72 µg/mL)	8 µM (≈ 2.72 µg/mL)	8 µM (≈ 2.72 µg/mL)	4 µM (≈ 1.36 µg/mL)	4 µM (≈ 1.36 µg/mL)
CCCCNc1nccnc1C(=O)NCc1ccccc1	125 µM (≈ 35.5 µg/mL)	250 µM (≈ 71.1 µg/mL)	125 µM (≈ 35.5 µg/mL)	250 µM (≈ 71.1 µg/mL)	125 µM (≈ 35.5 µg/mL)	250 µM (≈ 71.1 µg/mL)	125 µM (≈ 35.5 µg/mL)	250 µM (≈ 71.1 µg/mL)	125 µM (≈ 35.5 µg/mL)	125 µM (≈ 35.5 µg/mL)	125 µM (≈ 35.5 µg/mL)	125 µM (≈ 35.5 µg/mL)	125 µM (≈ 35.5 µg/mL)	250 µM (≈ 71.1 µg/mL)
CCCCCCCCNc1nccnc1C(=O)NCc1ccccc1	> 1000 µM	> 1000 µM	> 1000 µM	> 1000 µM	> 1000 µM	> 1000 µM	> 1000 µM	> 1000 µM	> 1000 µM	> 1000 µM	> 1000 µM	> 1000 µM	> 1000 µM	> 1000 µM
CCCCCCCCNc1cncc(C(=O)NCc2ccccc2)n1	16 µM (≈ 5.45 µg/mL)	16 µM (≈ 5.45 µg/mL)	16 µM (≈ 5.45 µg/mL)	16 µM (≈ 5.45 µg/mL)	16 µM (≈ 5.45 µg/mL)	16 µM (≈ 5.45 µg/mL)	16 µM (≈ 5.45 µg/mL)	16 µM (≈ 5.45 µg/mL)	16 µM (≈ 5.45 µg/mL)	16 µM (≈ 5.45 µg/mL)	16 µM (≈ 5.45 µg/mL)	16 µM (≈ 5.45 µg/mL)	16 µM (≈ 5.45 µg/mL)	16 µM (≈ 5.45 µg/mL)
